Results: article PMC6857671 (Chemical Science, 2019)

Test system: HeLa cells
Assay: Confocal microscopic analysis of cellular location of DOX and 36
Format: cell-based
Conditions: 10 µM, 3 h, 37 °C, fluorescence confocal microscopy

## COc1cccc2c1C(=O)c1c(O)c3c(c(O)c1C2=O)C[C@@](O)(C(=O)CO)C[C@@H]3O[C@H]1C[C@H](N)[C@H](O)[C@H](C)O1 [DOX, Doxorubicin]
  cellular location of DOX fluorescence, no irradiation: efficiently transported to the nucleus
